Activity calls are given as the source filed them.
Experiments:
[1] = target: T1, Aminopeptidase N (Plasmodium falciparum FcB1/Columbia, UniProt O96935); assay: malaria alanyl aminopeptidase activity blockers – biochemical, fluorogenic H-Leu-NHMec substrate, 1536-well (AID 1445); parameters: species or system Plasmodium falciparum 3D7, 3D7
T1 sequence (O96935 whole entry): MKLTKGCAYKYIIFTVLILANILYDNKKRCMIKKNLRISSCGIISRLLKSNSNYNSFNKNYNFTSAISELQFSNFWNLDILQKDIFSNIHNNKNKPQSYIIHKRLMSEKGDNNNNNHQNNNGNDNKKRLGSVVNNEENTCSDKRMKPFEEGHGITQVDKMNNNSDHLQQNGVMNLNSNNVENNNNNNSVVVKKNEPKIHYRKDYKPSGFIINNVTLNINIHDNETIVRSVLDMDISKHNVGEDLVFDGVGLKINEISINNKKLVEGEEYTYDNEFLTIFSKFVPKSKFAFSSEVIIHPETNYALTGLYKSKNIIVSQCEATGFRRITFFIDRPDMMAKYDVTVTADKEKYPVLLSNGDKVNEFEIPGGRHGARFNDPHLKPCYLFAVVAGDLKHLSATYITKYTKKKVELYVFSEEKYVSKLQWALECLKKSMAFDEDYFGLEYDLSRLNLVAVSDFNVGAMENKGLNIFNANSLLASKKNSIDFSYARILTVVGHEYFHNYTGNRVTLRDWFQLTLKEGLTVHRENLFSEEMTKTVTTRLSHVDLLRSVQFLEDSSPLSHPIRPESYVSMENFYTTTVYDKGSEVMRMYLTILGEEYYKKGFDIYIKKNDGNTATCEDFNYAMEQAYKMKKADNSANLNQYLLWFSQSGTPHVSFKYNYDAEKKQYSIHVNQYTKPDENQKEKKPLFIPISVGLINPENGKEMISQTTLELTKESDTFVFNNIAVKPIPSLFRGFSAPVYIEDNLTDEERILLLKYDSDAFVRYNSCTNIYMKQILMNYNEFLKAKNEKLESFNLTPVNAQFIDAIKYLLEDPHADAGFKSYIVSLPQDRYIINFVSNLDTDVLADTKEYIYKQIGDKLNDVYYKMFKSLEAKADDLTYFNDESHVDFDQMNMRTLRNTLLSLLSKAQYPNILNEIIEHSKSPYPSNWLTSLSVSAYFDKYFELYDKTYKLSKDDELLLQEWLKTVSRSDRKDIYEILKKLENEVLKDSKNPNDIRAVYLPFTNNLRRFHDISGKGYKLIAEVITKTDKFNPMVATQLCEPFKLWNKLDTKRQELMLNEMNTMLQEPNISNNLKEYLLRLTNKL

[2] = target: T2, Short transient receptor potential channel 4 (Mus musculus, UniProt Q9QUQ5); assay: block of DAMGO-driven TRPC4 calcium entry – cell-based, HEK293 TRPC4/mu-opioid, Fluo-4 calcium, dose response (AID 434942); type: functional;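 further: potency of inhibitors blocking the TRPC4 calcium response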
T2 sequence (Q9QUQ5 whole entry): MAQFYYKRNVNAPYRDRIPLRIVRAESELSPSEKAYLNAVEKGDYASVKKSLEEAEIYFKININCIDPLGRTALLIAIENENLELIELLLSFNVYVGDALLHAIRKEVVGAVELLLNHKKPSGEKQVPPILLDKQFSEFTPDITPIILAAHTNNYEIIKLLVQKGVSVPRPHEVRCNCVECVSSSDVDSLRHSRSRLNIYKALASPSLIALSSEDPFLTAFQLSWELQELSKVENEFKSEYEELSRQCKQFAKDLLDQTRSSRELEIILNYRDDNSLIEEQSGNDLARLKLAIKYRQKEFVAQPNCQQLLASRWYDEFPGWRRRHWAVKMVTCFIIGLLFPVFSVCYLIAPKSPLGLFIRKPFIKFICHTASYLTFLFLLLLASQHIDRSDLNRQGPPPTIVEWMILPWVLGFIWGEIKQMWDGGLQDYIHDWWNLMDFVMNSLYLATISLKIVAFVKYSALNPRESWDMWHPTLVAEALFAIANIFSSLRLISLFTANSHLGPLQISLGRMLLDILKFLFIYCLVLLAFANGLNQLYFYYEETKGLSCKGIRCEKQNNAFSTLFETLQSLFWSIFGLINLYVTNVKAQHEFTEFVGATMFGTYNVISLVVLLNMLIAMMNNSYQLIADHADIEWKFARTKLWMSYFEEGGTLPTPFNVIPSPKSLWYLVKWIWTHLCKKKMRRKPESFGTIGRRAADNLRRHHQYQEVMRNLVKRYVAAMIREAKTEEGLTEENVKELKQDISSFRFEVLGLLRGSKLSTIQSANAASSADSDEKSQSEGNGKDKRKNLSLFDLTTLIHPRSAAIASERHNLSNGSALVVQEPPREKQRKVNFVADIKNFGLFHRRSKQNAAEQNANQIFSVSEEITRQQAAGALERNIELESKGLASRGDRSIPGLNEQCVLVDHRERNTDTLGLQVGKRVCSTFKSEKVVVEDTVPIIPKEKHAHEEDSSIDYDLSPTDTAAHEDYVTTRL

[3] = target: FAD-linked sulfhydryl oxidase ALR (Homo sapiens, UniProt P55789); assay: ALR-catalysed DTT oxidation blockers – biochemical, H2O2 detection, luminescence, cherry-pick, dose response (AID 493248)
[4] = target: T3, High affinity choline transporter 1 (Homo sapiens, UniProt Q9GZV3); assay: human choline transporter blockers, potency – cell-based, 5-point CRC, membrane potential dye, dose response (AID 504840); type: functional
T3 sequence (Q9GZV3 whole entry): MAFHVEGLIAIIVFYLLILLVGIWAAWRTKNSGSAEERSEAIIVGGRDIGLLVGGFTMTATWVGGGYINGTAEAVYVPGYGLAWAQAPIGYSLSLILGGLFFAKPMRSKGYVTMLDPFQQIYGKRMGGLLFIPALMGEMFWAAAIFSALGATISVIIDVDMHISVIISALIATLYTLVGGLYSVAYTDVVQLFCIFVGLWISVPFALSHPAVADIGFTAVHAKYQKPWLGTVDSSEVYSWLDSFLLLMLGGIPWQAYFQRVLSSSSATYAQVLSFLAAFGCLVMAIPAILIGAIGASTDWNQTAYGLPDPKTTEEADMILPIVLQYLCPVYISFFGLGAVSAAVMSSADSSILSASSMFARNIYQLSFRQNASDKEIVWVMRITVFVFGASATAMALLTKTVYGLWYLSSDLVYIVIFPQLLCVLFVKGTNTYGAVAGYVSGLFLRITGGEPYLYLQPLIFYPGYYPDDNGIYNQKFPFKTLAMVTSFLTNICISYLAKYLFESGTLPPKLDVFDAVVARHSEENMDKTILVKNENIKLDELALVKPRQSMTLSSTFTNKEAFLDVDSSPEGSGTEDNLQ

[5] = target: Genome polyprotein (dengue virus type 2, UniProt P29990); assay: flavivirus cap methylation enzyme inhibition – biochemical, confirmation dose response, primary screen (AID 588689); type: functional
[6] = cells; type: functional, cell-based
[7] = cells; type: functional, cell-based; remark: listed apart in the source
[8] = target: T4, Heat shock factor protein 1 (Mus musculus, UniProt P38532); assay: decrease of HSF1-responsive luciferase luminescence – cell-based, NIH3T3, dose retest, confirmation (AID 2382); type: functional;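 further: NIH3T3 fibroblasts with HSF1-driven luciferase reporter stressed by proteasome inhibitor MG132; luminescence from HSF1-driven luciferase expression after 8 hours of MG132 stress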
T4 sequence (P38532 whole entry): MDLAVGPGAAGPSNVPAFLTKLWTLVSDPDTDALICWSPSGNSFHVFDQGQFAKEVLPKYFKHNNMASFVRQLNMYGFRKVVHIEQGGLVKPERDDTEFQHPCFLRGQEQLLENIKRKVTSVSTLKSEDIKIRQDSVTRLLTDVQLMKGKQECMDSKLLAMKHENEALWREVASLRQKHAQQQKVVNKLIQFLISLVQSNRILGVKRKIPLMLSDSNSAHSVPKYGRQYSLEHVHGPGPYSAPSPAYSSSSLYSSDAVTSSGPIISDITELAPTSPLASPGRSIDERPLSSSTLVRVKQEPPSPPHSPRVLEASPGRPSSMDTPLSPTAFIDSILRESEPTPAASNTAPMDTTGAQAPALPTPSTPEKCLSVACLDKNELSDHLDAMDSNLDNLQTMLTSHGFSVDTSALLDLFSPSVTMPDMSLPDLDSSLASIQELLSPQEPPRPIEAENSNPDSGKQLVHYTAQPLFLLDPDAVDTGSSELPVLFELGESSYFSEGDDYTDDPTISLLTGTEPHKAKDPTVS

Chain of Genome polyprotein (P29990 2492-3391 limits assumed): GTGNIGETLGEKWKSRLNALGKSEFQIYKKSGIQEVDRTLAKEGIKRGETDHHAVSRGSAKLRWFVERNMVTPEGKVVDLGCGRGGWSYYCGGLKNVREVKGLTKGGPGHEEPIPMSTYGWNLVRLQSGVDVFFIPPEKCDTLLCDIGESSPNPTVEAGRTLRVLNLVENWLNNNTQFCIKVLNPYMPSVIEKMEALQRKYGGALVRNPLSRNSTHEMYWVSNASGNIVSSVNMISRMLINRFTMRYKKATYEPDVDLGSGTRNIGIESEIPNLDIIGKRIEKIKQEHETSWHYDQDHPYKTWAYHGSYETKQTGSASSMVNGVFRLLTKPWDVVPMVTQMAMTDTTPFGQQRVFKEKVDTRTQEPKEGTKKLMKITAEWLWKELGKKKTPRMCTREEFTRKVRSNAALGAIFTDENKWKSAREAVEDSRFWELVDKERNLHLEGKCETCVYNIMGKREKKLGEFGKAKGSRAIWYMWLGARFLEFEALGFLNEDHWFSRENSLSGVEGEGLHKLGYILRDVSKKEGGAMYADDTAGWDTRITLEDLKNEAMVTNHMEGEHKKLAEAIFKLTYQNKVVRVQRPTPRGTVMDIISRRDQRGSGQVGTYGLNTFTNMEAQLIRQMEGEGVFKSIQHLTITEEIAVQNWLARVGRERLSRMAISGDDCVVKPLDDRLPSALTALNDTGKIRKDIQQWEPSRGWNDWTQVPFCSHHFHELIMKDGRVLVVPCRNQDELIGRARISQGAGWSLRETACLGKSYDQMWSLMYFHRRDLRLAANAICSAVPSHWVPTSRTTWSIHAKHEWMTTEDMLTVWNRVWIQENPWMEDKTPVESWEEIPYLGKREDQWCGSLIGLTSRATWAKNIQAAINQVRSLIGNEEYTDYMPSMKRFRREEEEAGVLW
Chain of FAD-linked sulfhydryl oxidase ALR (P55789 whole entry): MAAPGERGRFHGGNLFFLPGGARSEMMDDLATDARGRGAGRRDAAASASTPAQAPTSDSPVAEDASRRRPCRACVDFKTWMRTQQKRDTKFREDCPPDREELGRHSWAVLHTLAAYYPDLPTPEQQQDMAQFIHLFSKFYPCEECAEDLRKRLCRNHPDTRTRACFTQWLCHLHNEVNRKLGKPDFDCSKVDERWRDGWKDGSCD

**Q.** With `CCCCCCC(=O)N(O)C1CC(=O)N(c2ccccc2)C1=O` (stereo not given) as the molecule, how does the IC50 [1] read?
**A.** Its IC50 is 66.5 µM (active).

**Q.** Which results are given for `c1ccc(Nc2[nH]nnc2-c2ccccc2)cc1`?
**A.** EC50 [2]: 1.88 µM (active); AC50 [3]: > 100 µM (inactive)

**Q.** For `CCC1=Nc2cc(C(=O)N3CCC4(CC3)OCCO4)ccc2Sc2ccc(C)cc21`, which EC50 [2] is on record?
**A.** The EC50 was 7.5 µM (active).

**Q.** Which IC50 [1] does the source give for `Cc1c(N2C(=O)C(O)=C(C(=O)c3ccc(Br)cc3)C2c2cccnc2)c(=O)n(-c2ccccc2)n1C` (stereo not given) here?
**A.** Its IC50 is 38.1 µM (active).

**Q.** For `S=C(NCCCN1CCOCC1)Nc1cccc(-c2nnc3n2CCCCC3)c1`, which IC50 [4] is on record?
**A.** Its IC50 is 13.9 µM (active).

**Q.** Which IC50 [1] does the source give for `O=C(O)C(c1ccccc1)N1C(=O)/C(=C/c2cccs2)SC1=S` (stereo not given) here?
**A.** The IC50 was 57.7 µM (active).

**Q.** And the IC50 [5]?
**A.** The IC50 was 46.9 µM (active).

**Q.** For `CN1CCN(c2ccc(NC(=O)c3ccc(Br)o3)cc2)CC1`, which EC50 [2] is on record?
**A.** The EC50 was 0.841 µM (active).

**Q.** Which IC50 [4] does the source give for `CC(C)=CCN1CCN(Cc2cn(C(C)C)c3ccccc23)CC1CCO` (stereo not given) here?
**A.** Its IC50 is 13.2 µM (active).

**Q.** For `CCOC(=O)c1sc(NC(=O)CCN2CCN(C)CC2)c(C(=O)OCC)c1C`, which IC50 [4] is on record?
**A.** The IC50 was 14.5 µM (active).

**Q.** Which results are given for `O=C(CCc1ccccc1)Nc1ccnn1C1CCN(C/C=C/c2ccccc2)CC1`?
**A.** EC50 [2]: 1.5 µM (active); EC50 [6]: > 350 µM (not active); EC50 [7]: > 350 µM (not active)

**Q.** For `COc1cccc(OC)c1OCCCCCc1c(C)n[nH]c1C`, which IC50 [4] is on record?
**A.** Its IC50 is 9.12 µM (active).

**Q.** With `Cc1cc(OCC(=O)Nc2ccc(N3CCN(C)CC3)cc2)ccc1Cl` as the molecule, how does the EC50 [2] read?
**A.** Its EC50 is 2.66 µM (active).

**Q.** With `CC1CCN(S(=O)(=O)c2ccc3c(c2)N(CC(=O)NCCN2C(C)CCCC2C)C(=O)CS3)CC1` (stereo not given) as the molecule, how does the IC50 [4] read?
**A.** The IC50 was 11.3 µM (active).

**Q.** For `COc1ccc(OCC(=O)N2CCN(C(=O)COc3ccc(Br)cc3)CC2)cc1`, which IC50 [1] is on record?
**A.** The IC50 was 59.2 µM (active).

**Q.** For `O=C(O)c1cccc(NC(=S)NC(NC(=O)c2ccco2)C(Cl)(Cl)Cl)c1` (stereo not given), which EC50 [8] is on record?
**A.** Its EC50 is > 195 µM (not active).

**Q.** And the IC50 [1]?
**A.** The IC50 was 39.9 µM (active).

Source: ChEMBL document CHEMBL1201862, “PubChem BioAssay data set” (2004)
